Like-named read-outs stand apart in the source and are kept apart here.
System: SARS-CoV-2 (USA-WA1/2020) in Calu-3 cells
Type: cell-based
[1] = high dose (10 µM), Calu-3, 48 h
[2] = low dose (100 nM), Calu-3, 48 h

SMILES | dsRNA signal, AU High [1] [AU] | dsRNA signal, AU Low [2] [AU] | dsRNA signal, AU High | dsRNA signal, AU Low
C[C@@H]1CCN(C(=O)CC#N)C[C@@H]1N(C)c1ncnc2[nH]ccc12.O=C(O)CC(O)(CC(=O)O)C(=O)O [Tofacitinib (CP-690550) Citrate] | 57107.2 | 61115.5 | – | –
C[C@@H]1CCN(C(=O)CC#N)C[C@@H]1N(C)c1ncnc2[nH]ccc12 [Tofacitinib (CP-690550,Tasocitinib)] | 6571.2 | 4801.5 | – | –
CCC(=O)N1CCN(c2ccc(-n3c(=O)ccc4cnc5ccc(-c6cnc7ccccc7c6)cc5c43)cc2C(F)(F)F)CC1 [Torin 1] | 1083.7 | 14896.3 | – | –
CC(=O)Nc1cccc(-n2c(=O)n(C3CC3)c(=O)c3c(Nc4ccc(I)cc4F)n(C)c(=O)c(C)c32)c1.C[S+](C)[O-] [Trametinib DMSO solvate] | – | – | 10918.5 | 24279.8
NC(=S)N/N=C/c1ncccc1N [Triapine] | 0.0 | 17637.1 | – | –
CC(C)(C)c1cc(C=C(C#N)C#N)cc(C(C)(C)C)c1O [Tyrphostin 9] | 58.0 | 17328.1 | – | –
CC(C)(C)c1cc(/C=C(\C#N)C(N)=S)cc(C(C)(C)C)c1O [Tyrphostin AG 879] | 54.0 | 6760.3 | – | –
COc1cc2ncc(-c3ccccc3)nc2cc1OC [Tyrphostin AG 1296] | 2647.7 | 18881.3 | – | –
CCCCNc1ncc2c(-c3ccc(CN4CCN(C)CC4)cc3)cn([C@H]3CC[C@H](O)CC3)c2n1 [UNC2025] | 55553.7 | 67297.4 | – | –
CCCCNc1ncc(C(=O)NCc2ccc(-n3ccnc3)cc2)c(NC2CCC(O)CC2)n1 (centres unmarked) [UNC2881] | 446.4 | 42094.2 | – | –
CN1CCN(Cc2ccc(-c3cnc4[nH]cc(-c5ccc6[nH]ccc6c5)c4c3)cc2)CC1 [URMC-099] | 20784.2 | 7905.7 | – | –
O.O.O.O=C(O)c1ncccc1O.O=C(O)c1ncccc1O.[O]=[V] [VO-Ohpic trihydrate] | 28838.2 | 7631.3 | – | –
c1cncc(CN2CCC(n3ncc4c(N5CCOCC5)nc(-c5ccc6[nH]ccc6c5)nc43)CC2)c1 [WAY-600] | 1003.4 | 67106.4 | – | –
COc1cc2ncnc(Nc3ccc(O)c(Br)c3)c2cc1OC [WHI-P154] | 5163.1 | 0.0 | – | –
CNC(=O)Nc1ccc(-c2nc(N3CC4CCC(C3)O4)c3cnn(C4CCC5(CC4)OCCO5)c3n2)cc1 [WYE-125132 (WYE-132)] | 4894.7 | 21738.1 | – | –
C=CC(=O)Nc1cccc(Oc2nc(Nc3ccc(N4CCN(C)CC4)cc3)ncc2Cl)c1 [WZ3146] | 23148.6 | 16337.5 | – | –
CCC(=O)Nc1cccc(Oc2nc(Nc3ccc(N4CCN(C)CC4)cc3OC)ncc2Cl)c1 [WZ4003] | 30589.4 | 38446.0 | – | –
COc1cc(O)c2c(c1)oc(=O)c1c3cc(O)c(O)cc3oc21 [Wedelolactone] | 9001.4 | 16105.5 | – | –
COc1ccc(Cl)c(Nc2nc3ccccc3nc2NS(=O)(=O)c2cccc(NC(=O)C(C)(C)N)c2)c1 [XL147] | 6847.8 | 47539.1 | – | –
Cc1c(C(=O)N2CCOc3ccc(-c4ccc(N)nc4)cc3C2)ccc(S(C)(=O)=O)c1F [XL388] | 5203.5 | 16443.4 | – | –
CCOc1cc(N2CCC(O)CC2)ccc1Nc1ncc2c(n1)N(C)c1ccccc1C(=O)N2C [XMD8-92] | 359.5 | 30524.1 | – | –
C[C@@H](N)[C@H]1CC[C@H](C(=O)Nc2ccncc2)CC1 [Y-27632] | 3508.5 | 46665.7 | – | –

Source: PMC12142043, “Cell-based high-content approach for SARS-CoV-2 neutralization identifies unique monoclonal antibodies and PI3K pathway inhibitors” (Frontiers in Cell and Developmental Biology, 2025)
